# In patent publication US10086082B2, “Plant steroids and uses thereof” (DAVIDSON LOPEZ LLC, priority 2011, dated 2018):
# Test system: Caco-2 cells
# Assay: Gene expression profiling of Caco-2 cells treated with compounds (Illumina HT-12 arrays, Volcano plots)
# Assay type: cell-based, human
# Conditions: gene array; for Interleukin-1, beta gene regulation: 24 hours exposure
# Experimental: Gene expression profiles were generated from 2.5 μM and 25 μM treatments of Caco-2 cells (ATCC).
# All compounds were individually applied to Caco-2 cells (250,000/well). After RNA isolation of each treatment, the isolated RNAs were individually labeled as cDNA probes and applied to Illumina HT-12 array chips.
# Key Genes Affected per Gene Class: Using the Inforsense Suite of Data Analysis tool (IDBS), a total of 36 Volcano plots were generated against 36 gene array assays (triplicate array assays per nontreatment and treatment of compounds). […] Genes were identified on both sides of the volcano plots (shaded in gray in FIG. 2) that were at a correlation coefficient of p<0.05.
# The human colon adenocarcinoma cell line Caco-2 was cultured in Dulbecco's Modified Eagle's Medium (Sigma-Aldrich) with 4.5 g/l glucose, L-glutamine, NaHCO3 and pyridoxine HCl supplemented with 1% (vol/vol) nonessential amino acids, 1% Na-pyruvate, 1% penicillin/streptomycin, and 10% (vol/vol) heat inactivated fetal calf serum, all purchased from Gibco BRL. Cell cultures were transferred weekly by trypsinization and incubated at 37° C. in a humidified incubator containing 5% CO2. […] Cells were exposed to each compound, respectively, for 24 hours.
# Total RNA was isolated according to the TRIzol manufacturer's instructions (Invitrogen). RNA quality was assessed with a 2100 Bioanalyzer (Agilent). RNA from pooled triplicates of the various cell treatments, all with an RNA integrity number >7, was further purified with Qiagen RNeasy columns. From 300 ng of total RNA, the Illumina TotalPrep RNA Amplification kit (Ambion) was used to generate amplified biotinylated cRNA after reverse transcription by the Eberwine procedure. cRNA (900 ng) was hybridized overnight to Illumina HT-12 BeadArrays, which were then washed and stained with streptavidin-Cy3 (Amersham-Pharmacia Biotech) according to the Illumina protocol. Arrays were scanned on a BeadArray Reader (Illumina).
# Specific transcripts within the biotinylated cRNA were measured by fluorescent imaging after direct hybridization to HT-12 bead arrays, which contain 12 arrays per slide, each with an average of 15 beads for each of 48,803 probes measuring 37,846 annotated genes and additional transcripts. Raw measurements of the intensity of each bead were captured directly and processed as “bead-level” for the samples, as described below. For both treated and non-treated samples, measurements were processed as “probe-level” data by GenomeStudio software (Illumina). […]
Compound,"Interleukin-1, beta gene regulation",interleukin receptor and interleukins affected,similarity of gene profile to prednisone
Stigmasterol Triethyleneglycol Prednisolone Succinate [SE-22],up-regulated,–,–
"CC[C@H](/C=C/[C@@H](C)[C@H]1CC[C@H]2[C@@H]3CC=C4C[C@@H](OC(=O)CCC(=O)OCC(=O)[C@@]5(O)CC[C@H]6[C@@H]7CCC8=CC(=O)C=C[C@]8(C)[C@H]7[C@@H](O)C[C@@]65C)CC[C@]4(C)[C@H]3CC[C@]12C)C(C)C [SE-24, Stigmasterol Prednisolone Succinate Diester]",up-regulated,affected,more similar gene profiles to prednisone
